Source: the supplement of paper PMC10307832

Tests used:
Assay in all cases: relative viability (nuclei count vs DMSO), 5 days (fraction); higher = more cells survive
[1] = compound: O=C(CCCCCCC(=O)Nc1ccccc1)NO [Vorinostat] + CS(=O)(=O)CCNCc1ccc(-c2ccc3ncnc(Nc4ccc(OCc5cccc(F)c5)c(Cl)c4)c3c2)o1 [Lapatinib] (partner 2 µM)
Method in brief: (§1)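 Five library-drug doses in √10 steps were combined with a fixed anchor-drug dose, or a single drug was given alone, by pin tool to lung cancer cell lines in 1536-well plates the day after seeding. Nuclei were stained and counted after 5 days. Relative viability is the nuclei count in treated wells over that in vehicle wells, taken as the median of duplicate plates.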

[2] = compound: O=C(CCCCCCC(=O)Nc1ccccc1)NO [Vorinostat] + Cc1cc(Nc2cc(N3CCN(C)CC3)nc(Sc3ccc(NC(=O)C4CC4)cc3)n2)n[nH]1 [Tozasertib] (partner 0.1 µM)
Method in brief: as §1

[3] = compound: O=C(CCCCCCC(=O)Nc1ccccc1)NO [Vorinostat] + COc1cc2c(Oc3ccc(NC(=O)C4(C(=O)Nc5ccc(F)cc5)CC4)cc3F)ccnc2cc1OCCCN1CCOCC1 [Foretinib] (partner 0.25 µM)
Method in brief: as §1

[4] = compound: O=C(CCCCCCC(=O)Nc1ccccc1)NO [Vorinostat] + CC1(C)CCC(c2ccc(Cl)cc2)=C(CN2CCN(c3ccc(C(=O)NS(=O)(=O)c4ccc(N[C@H](CCN5CCOCC5)CSc5ccccc5)c(S(=O)(=O)C(F)(F)F)c4)cc3)CC2)C1 [Navitoclax] (partner 0.5 µM)
Method in brief: as §1

[5] = compound: O=C(CCCCCCC(=O)Nc1ccccc1)NO [Vorinostat] + Cc1nc(NC(=O)N2CCC[C@H]2C(N)=O)sc1-c1ccnc(C(C)(C)C(F)(F)F)c1 [Alpelisib] (partner 2 µM)
Method in brief: as §1

Cell Line	relative viability ([1]; first compound 0.253 µM)	relative viability ([1]; first compound 0.8 µM)	relative viability ([1]; first compound 2.53 µM)	relative viability ([1]; first compound 8 µM)	relative viability ([2]; first compound 0.253 µM)	relative viability ([2]; first compound 0.8 µM)	relative viability ([2]; first compound 2.53 µM)	relative viability ([2]; first compound 8 µM)	relative viability ([3]; first compound 0.253 µM)	relative viability ([3]; first compound 0.8 µM)	relative viability ([3]; first compound 2.53 µM)	relative viability ([3]; first compound 8 µM)	relative viability ([4]; first compound 0.253 µM)	relative viability ([4]; first compound 0.8 µM)	relative viability ([4]; first compound 2.53 µM)	relative viability ([4]; first compound 8 µM)	relative viability ([5]; first compound 0.253 µM)	relative viability ([5]; first compound 0.8 µM)	relative viability ([5]; first compound 2.53 µM)	relative viability ([5]; first compound 8 µM)
COR-L23	1.07	0.818	0.139	0.0646	0.19	0.0976	0.105	0.0594	1.02	0.671	0.152	0.0834	1.13	0.503	0.0887	0.0849	0.834	0.372	0.0994	0.0715
NCI-H2126	0.75	0.733	0.562	0.22	0.731	0.444	0.212	0.171	1.14	0.968	0.365	0.235	0.834	0.756	0.489	0.211	0.733	0.653	0.365	0.199
NCI-H1395	1.26	0.906	0.671	0.371	1.02	0.682	0.456	0.324	1.09	1.09	0.822	0.427	1.14	1.26	0.693	0.387	1.48	1.09	0.57	0.373
NCI-H727	0.632	0.736	0.335	0.227	0.545	0.56	0.315	0.362	0.855	0.821	0.378	0.329	0.433	0.506	0.241	0.196	0.536	0.68	0.303	0.203
LU99A	1.01	0.871	0.315	0.169	0.299	0.259	0.208	0.213	0.81	0.692	0.319	0.222	0.653	0.553	0.172	0.0974	0.517	0.395	0.178	0.126
NCI-H23	1.24	1.03	0.344	0.141	0.275	0.269	0.105	0.124	1.05	0.724	0.336	0.129	1.06	0.89	0.25	0.142	0.84	0.707	0.213	0.117
NCI-H1993	0.959	1	0.579	0.399	0.633	0.608	0.489	0.457	0.84	0.801	0.747	0.494	1	0.998	0.608	0.438	0.737	0.691	0.562	0.522
COR-L 105	0.425	0.287	0.252	0.249	0.458	0.331	0.245	0.213	1.27	0.996	0.915	0.246	0.741	0.58	0.257	0.234	1.37	0.783	0.249	0.184
NCI-H3122	1.03	0.981	0.939	0.167	0.387	0.294	0.0525	0.0914	1.04	1.05	0.242	0.0563	1.09	1.08	0.959	0.184	0.768	0.811	0.393	0.208
HCC-15	0.941	0.852	0.569	0.129	0.294	0.219	0.101	0.0559	1.12	0.979	0.464	0.102	0.82	0.594	0.324	0.0877	0.93	0.864	0.468	0.0971
NCI-H520	1.12	0.668	0.319	0.116	0.422	0.37	0.207	0.209	0.965	0.791	0.555	0.179	1.17	0.845	0.256	0.162	1.02	0.588	0.487	0.139
NCI-H2347	0.988	1.04	0.766	0.341	0.66	0.432	0.244	0.203	1.02	0.84	0.587	0.198	0.933	0.714	0.238	0.16	1.11	1.08	0.526	0.221
201T	1.05	0.954	0.929	0.567	0.742	0.534	0.334	0.203	1.25	0.983	0.511	0.165	1.24	1.25	1.2	0.472	0.965	0.982	0.751	0.309
NCI-H2009	1.06	0.503	0.329	0.133	0.776	0.574	0.295	0.133	1.28	1.22	0.716	0.143	1.16	1.16	0.722	0.141	1.24	1	0.633	0.187
BEN	0.819	0.379	0.151	0.0751	0.463	0.441	0.248	0.0886	0.8	0.414	0.149	0.0734	0.0469	0.0584	0.0602	0.0509	1.07	0.457	0.154	0.0775
NCI-H1355	1.02	0.792	0.693	0.157	0.529	0.315	0.188	0.129	1.05	1.01	0.562	0.156	1.05	0.876	0.506	0.166	1.1	0.691	0.321	0.145
